Laboratory results as given in patent US10865208B2, “ATG7 inhibitors and the uses thereof” (Millennium Pharmaceuticals, Inc., priority 2016, dated 2020).

Target: recombinant human His-ATG7 enzyme (Homo sapiens (Human), UniProt O95352)
Test: ATG7 Enzyme Assay (HTRF/FRET, ATG3-GST and Flag-Gabarap)
Assay type: biochemical
Details: for inhibition at 0.123 µM: Concentration 0.123 μM; for inhibition at 0.123 µM / inhibition at 0.111 µM: read-out: Percent Inhibition; for inhibition at 0.111 µM: Concentration 0.111 μM
Protocol: Example 97: ATG7 Enzyme Assay
The total volume of the ATG7 enzymatic assay is 50 μL and contains 50 mM HEPES Hemisodium (pH 7.5), 0.05% BSA, 0.01% Tween-20, 25 mM NaCl, 5 mM MgCl2, 10 μM ATP, 250 μM GSH, 5 nM ATG3-GST, 5 nM Flag-Gabarap, 100 μM TCEP and 0.15 nM recombinant human His-ATG7 enzyme. The enzymatic reaction mixture, with and without inhibitor, was incubated at 24° C. for 105 min in a 384-well plate before termination with […] of Stop/Detection buffer (0.1M HEPES Hemisodium pH 7.5, 0.05% Tween20, 20 mM EDTA, 410 mM KF, 0.53 nM Europium-Cryptate labeled monoclonal anti-Flag M2 Antibody (CisBio International) and 8.125 μg/ml PHYCOLINK goat anti-GST allophycocyanin (XL-APC) antibody (Prozyme)). After incubation for 2 hours at 24° C., quantification of FRET is performed on the Pherostar™ (BMG Labtech). Percentage inhibition values at a single concentration or enzyme inhibition (IC50) values are determined from those curves. One skilled in the art will appreciate that the values generated either as percentage inhibition at a single concentration or IC50 values are subject to experimental variation.

recombinant human His-ATG7 enzyme, sequence (O95352 whole entry): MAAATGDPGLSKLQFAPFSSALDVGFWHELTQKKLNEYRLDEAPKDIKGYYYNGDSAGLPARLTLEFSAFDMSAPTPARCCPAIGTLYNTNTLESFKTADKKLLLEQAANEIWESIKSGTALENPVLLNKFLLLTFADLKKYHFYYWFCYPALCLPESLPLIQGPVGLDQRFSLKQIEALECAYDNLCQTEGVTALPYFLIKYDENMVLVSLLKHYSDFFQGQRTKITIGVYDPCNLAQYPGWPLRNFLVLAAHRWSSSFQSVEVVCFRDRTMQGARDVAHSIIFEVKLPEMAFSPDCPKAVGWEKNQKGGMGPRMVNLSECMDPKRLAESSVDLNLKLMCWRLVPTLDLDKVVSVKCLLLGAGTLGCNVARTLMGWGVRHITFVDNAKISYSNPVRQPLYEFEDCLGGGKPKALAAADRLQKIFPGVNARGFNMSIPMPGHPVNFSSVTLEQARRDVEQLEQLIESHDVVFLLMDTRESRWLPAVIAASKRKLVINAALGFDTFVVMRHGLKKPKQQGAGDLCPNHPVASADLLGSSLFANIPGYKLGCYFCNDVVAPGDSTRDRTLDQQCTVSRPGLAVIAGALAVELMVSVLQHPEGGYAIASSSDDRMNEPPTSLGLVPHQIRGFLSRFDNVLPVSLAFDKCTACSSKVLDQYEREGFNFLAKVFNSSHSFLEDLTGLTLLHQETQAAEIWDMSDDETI

Work on `COC(C)c1nn([C@@H]2O[C@H](COS(N)(=O)=O)[C@@H](O)[C@H]2O)c2ncnc(N)c12` (mixture of isomers) [Compound I-22, [(2R,3S,4R,5R)-5-{4-amino-3-[(1R)-1-methoxyethyl]-1H-pyrazolo[3,4-d]pyrimidin-1-yl}-3,4-dihydroxytetrahydrofuran-2-yl]methyl Sulfamate and [(2R,3S,4R,5R)-5-{4-amino-3-[(1S)-1-methoxyethyl]-1H-pyrazolo[3,4-d]pyrimidin-1-yl}-3,4-dihydroxytetrahydrofuran-2-yl]methyl Sulfamate] yielded an IC50 of over 500 nM and an inhibition at 0.123 µM of 5%.
`Nc1ncnc2c1c(SC1CCCCC1O)nn2[C@@H]1O[C@H](COS(N)(=O)=O)[C@@H](O)[C@H]1O` (mixture of isomers) [Compound I-47, [(2R,3S,4R,5R)-5-(4-amino-3-{[(1R,2R)-2-hydroxycyclohexyl]sulfanyl}-1H-pyrazolo[3,4-d]pyrimidin-1-yl)-3,4-dihydroxytetrahydrofuran-2-yl]methyl Sulfamate and [(2R,3S,4R,5R)-5-(4-amino-3-{[(1S,2S)-2-hydroxycyclohexyl]sulfanyl}-1H-pyrazolo[3,4-d]pyrimidin-1-yl)-3,4-dihydroxytetrahydrofuran-2-yl]methyl Sulfamate] showed an IC50 of 100 to 500 nM and an inhibition at 0.123 µM of 48%.
With `Nc1ncnc2c1c(SC1CCCC1O)nn2[C@@H]1O[C@H](COS(N)(=O)=O)[C@@H](O)[C@H]1O` (mixture of isomers) [Compound I-54, [(2R,3S,4R,5R)-5-(4-amino-3-{[(1R,2R)-2-hydroxycyclopentyl]sulfanyl}-1H-pyrazolo[3,4-d]pyrimidin-1-yl)-3,4-dihydroxytetrahydrofuran-2-yl]methyl Sulfamate and [(2R,3S,4R,5R)-5-(4-amino-3-{[(1S,2S)-2-hydroxycyclopentyl]sulfanyl}-1H-pyrazolo[3,4-d]pyrimidin-1-yl)-3,4-dihydroxytetrahydrofuran-2-yl]methyl Sulfamate] the IC50 was 20 to 50 nM and the inhibition at 0.123 µM was 75%.
`CC(Sc1nn([C@@H]2O[C@H](COS(N)(=O)=O)[C@@H](O)[C@H]2O)c2ncnc(N)c12)c1ccccc1` (mixture of isomers) [Compound I-70, [(2R,3S,4R,5R)-5-(4-amino-3-{[(1R)-1-phenylethyl]sulfanyl}-1H-pyrazolo[3,4-d]pyrimidin-1-yl)-3,4-dihydroxytetrahydrofuran-2-yl]methyl sulfamate and [(2R,3S,4R,5R)-5-(4-amino-3-{[(1S)-1-phenylethyl]sulfanyl}-1H-pyrazolo[3,4-d]pyrimidin-1-yl)-3,4-dihydroxytetrahydrofuran-2-yl]methyl sulfamate] was tested, and the IC50 was 50 to 100 nM and the inhibition at 0.123 µM was 70%.
`CC(Sc1nn([C@@H]2O[C@H](COS(N)(=O)=O)[C@@H](O)[C@@H]2F)c2ncnc(N)c12)C(F)(F)F` (mixture of isomers) [Compound I-101, [(2R,3R,4S,5R)-5-(4-amino-3-{[(2R)-1,1,1-trifluoropropan-2-yl]sulfanyl}-1H-pyrazolo[3,4-d]pyrimidin-1-yl)-4-fluoro-3-hydroxytetrahydrofuran-2-yl]methyl Sulfamate and [(2R,3R,4S,5R)-5-(4-amino-3-{[(2S)-1,1,1-trifluoropropan-2-yl]sulfanyl}-1H-pyrazolo[3,4-d]pyrimidin-1-yl)-4-fluoro-3-hydroxytetrahydrofuran-2-yl]methyl Sulfamate] gave an IC50 of over 500 nM and an inhibition at 0.111 µM of 13%.
`Nc1ncnc2c1c(SC1CCOC1)nn2[C@@H]1O[C@H](COS(N)(=O)=O)[C@@H](O)[C@@H]1F` (mixture of isomers) [Compound I-123, [(2R,3R,4S,5R)-5-{4-amino-3-[(3R)-tetrahydrofuran-3-ylsulfanyl]-1H-pyrazolo[3,4-d]pyrimidin-1-yl}-4-fluoro-3-hydroxytetrahydrofuran-2-yl]methyl sulfamate and [(2R,3R,4S,5R)-5-{4-amino-3-[(3S)-tetrahydrofuran-3-ylsulfanyl]-1H-pyrazolo[3,4-d]pyrimidin-1-yl}-4-fluoro-3-hydroxytetrahydrofuran-2-yl]methyl sulfamate] gave an IC50 of 20 to 50 nM and an inhibition at 0.111 µM of 78%.
`Nc1ncnc2c1c(SCC1CC1(F)F)nn2[C@@H]1O[C@H](COS(N)(=O)=O)[C@@H](O)[C@@H]1F` (mixture of isomers) [Compound I-131, {(2R,3R,4S,5R)-5-[4-amino-3-({[(1R)-2,2-difluorocyclopropyl]methyl}sulfanyl)-1H-pyrazolo[3,4-d]pyrimidin-1-yl]-4-fluoro-3-hydroxytetrahydrofuran-2-yl}methyl sulfamate and {(2R,3R,4S,5R)-5-[4-amino-3-({[(1S)-2,2-difluorocyclopropyl]methyl}sulfanyl)-1H-pyrazolo[3,4-d]pyrimidin-1-yl]-4-fluoro-3-hydroxytetrahydrofuran-2-yl}methyl sulfamate] was tested, and the IC50 was 20 to 50 nM and the inhibition at 0.111 µM was 76%.
Compound `CCC(C)Sc1nn([C@@H]2O[C@H](COS(N)(=O)=O)[C@@H](O)[C@@H]2F)c2ncnc(N)c12` (mixture of isomers) [Compound I-136, [(2R,3R,4S,5R)-5-{4-amino-3-[(2R)-butan-2-ylsulfanyl]-1H-pyrazolo[3,4-d]pyrimidin-1-yl}-4-fluoro-3-hydroxytetrahydrofuran-2-yl]methyl sulfamate and [(2R,3R,4S,5R)-5-{4-amino-3-[(2S)-butan-2-ylsulfanyl]-1H-pyrazolo[3,4-d]pyrimidin-1-yl}-4-fluoro-3-hydroxytetrahydrofuran-2-yl]methyl sulfamate] has an IC50 of 20 to 50 nM and an inhibition at 0.111 µM of 69%.
Work on `CC(CO)Sc1nn([C@@H]2O[C@H](COS(N)(=O)=O)[C@@H](O)[C@@H]2F)c2ncnc(N)c12` (mixture of isomers) [Compound I-144, [(2R,3R,4S,5R)-5-(4-amino-3-{[(2R)-1-hydroxypropan-2-yl]sulfanyl}-1H-pyrazolo[3,4-d]pyrimidin-1-yl)-4-fluoro-3-hydroxytetrahydrofuran-2-yl]methyl sulfamate and [(2R,3R,4S,5R)-5-(4-amino-3-{[(2S)-1-hydroxypropan-2-yl]sulfanyl}-1H-pyrazolo[3,4-d]pyrimidin-1-yl)-4-fluoro-3-hydroxytetrahydrofuran-2-yl]methyl sulfamate] yielded an IC50 of 20 to 50 nM and an inhibition at 0.111 µM of 74%.
Compound `CC(C#N)Sc1nn([C@@H]2O[C@H](COS(N)(=O)=O)[C@@H](O)[C@@H]2F)c2ncnc(N)c12` (mixture of isomers) [Compound I-149, [(2R,3R,4S,5R)-5-(4-amino-3-{[(1R)-1-cyanoethyl]sulfanyl}-1H-pyrazolo[3,4-d]pyrimidin-1-yl)-4-fluoro-3-hydroxytetrahydrofuran-2-yl]methyl sulfamate and [(2R,3R,4S,5R)-5-(4-amino-3-{[(1S)-1-cyanoethyl]sulfanyl}-1H-pyrazolo[3,4-d]pyrimidin-1-yl)-4-fluoro-3-hydroxytetrahydrofuran-2-yl]methyl sulfamate] has an IC50 of 20 to 50 nM and an inhibition at 0.111 µM of 82%.
